# Results taken from patent US7348351B2, “Substituted 3-alkyl and 3-arylalkyl 1H-indol-1yl acetic acid derivatives as inhibitors of plasminogen activator inhibitor-1 (PAI-1)” (Wyeth, priority 2002, dated 2008).
# Assays:
# [1] = target: T1, recombinant human plasminogen activator inhibitor-1 (Homo sapiens, UniProt P05121); experiment: Primary Screen for the PAI-1 Inhibition (residual tPA activity, chromogenic Spectrozyme-tPA); type: biochemical; details: 25 μM test compound; 140 nM PAI-1, 70 nM tPA, pH 6.6
# T1 construct: purchased Molecular Innovations, Royal Oak, Mich
# T1 sequence (P05121 24-402): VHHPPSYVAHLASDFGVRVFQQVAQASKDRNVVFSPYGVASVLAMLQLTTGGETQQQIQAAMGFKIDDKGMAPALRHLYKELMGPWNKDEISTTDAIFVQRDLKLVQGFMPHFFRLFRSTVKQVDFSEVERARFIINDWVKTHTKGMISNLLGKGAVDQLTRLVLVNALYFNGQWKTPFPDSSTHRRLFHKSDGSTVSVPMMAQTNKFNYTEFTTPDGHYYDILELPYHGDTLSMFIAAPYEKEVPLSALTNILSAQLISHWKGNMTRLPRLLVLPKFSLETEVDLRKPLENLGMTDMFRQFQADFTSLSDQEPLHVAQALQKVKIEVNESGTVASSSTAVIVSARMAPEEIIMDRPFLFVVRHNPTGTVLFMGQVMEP
# Procedure: Primary Screen for the PAI-1 Inhibition
# Test compounds were dissolved in DMSO at a final concentration of 10 mM, then diluted 100× in physiologic buffer. The inhibitory assay was initiated by the addition of the test compound (1-100 μM final concentration, maximum DMSO concentration of 0.2%) in a pH 6.6 buffer containing 140 nM recombinant human plasminogen activator inhibitor-1 (Molecular Innovations, Royal Oak, Mich.). Following a 1 hour incubation at room temperature, 70 nM of recombinant human tissue plasminogen activator (tPA) was added, and the combination of the test compound, PAI-1 and tPA was incubated for an additional 30 minutes. Following the second incubation, Spectrozyme-tPA (American Diagnostica, Greenwich, Conn.), a chromogenic substrate for tPA, was added and absorbance read at 405 nm at 0 and 60 minutes. Relative PAI-1 inhibition is equal to the residual tPA activity in the presence of test compound and PAI-1. Control treatments included the complete inhibition of tPA by PAI-1 at the molar ratio employed (2:1), and the absence of any effect of the test compound on tPA alone.
# [2] = target: human PAI-1 (Homo sapiens, UniProt P05121); experiment: Assay for Determining IC50 of Inhibition of PAI-1 (antibody detection of active PAI-1 bound to tPA-coated plate); type: biochemical; details: human PAI-1 50 ng/ml, pH 7.5, 33B8 monoclonal antibody detection
# human PAI-1, sequence (P05121 24-402): as above
# Procedure: Assay for Determining IC50 of Inhibition of PAI-1
# This assay was based upon the non-SDS dissociable interaction between tPA and active PAI-1. Assay plates were initially coated with human tPA (10 μg/ml). The test compounds were dissolved in DMSO at 10 mM, then diluted with physiologic buffer (pH 7.5) to a final concentration of 1-50 μM. The test compounds were incubated with human PAI-1 (50 ng/ml) for 15 minutes at room temperature. The tPA-coated plate was washed with a solution of 0.05% Tween 20 and 0.1% BSA, then the plate was blocked with a solution of 3% BSA. An aliquot of the test compound/PAI-1 solution was then added to the tPA-coated plate, incubated at room temperature for 1 hour, and washed. Active PAI-1 bound to the plate was assessed by adding an aliquot of a 1:1000 dilution of the 33B8 monoclonal antibody against human PAI-1, and incubating the plate at room temperature for 1 hour (Molecular Innovations, Royal Oak, Mich.). […] The plate was incubated 45 minutes at room temperature, and color development was determined at OD405 nm. The quantitation of active PAI-1 bound to tPA at varying concentrations of the test compound was used to determine the IC50. Results are analyzed using a logarithmic best-fit equation. The assay sensitivity was 5 ng/ml of human PAI-1 as determined from a standard curve ranging from 0-100 ng/ml.
Compound,inhibition at 25 µM [1] [%],IC50 [2] [µM],melting point [°C],% Inhibition @ 25 μM [1] [%]
"CC(c1ccccc1)c1cn(CC(=O)O)c2ccc(-c3cccc(C(F)(F)F)c3)cc12 (centres unmarked) [Example 6, [3-(1-Phenyl-ethyl)-5-(3-trifluoromethyl-phenyl)-indol-1-yl]acetic acid]",49,,,
"CC(c1cccs1)c1cn(CC(=O)O)c2ccc(-c3cccc(C(F)(F)F)c3)cc12 (centres unmarked) [Example 7, [3-(1-Thiophen-2-yl-ethyl)-5-(3-trifluoromethyl-phenyl)-indol-1-yl]acetic acid]",47,,,
"CC(c1cn(CC(=O)O)c2ccc(-c3cccc(C(F)(F)F)c3)cc12)C1CCCCC1 (centres unmarked) [Example 8, [3-(1-Cyclohexyl-ethyl)-5-(3-trifluoromethyl-phenyl)-indol-1-yl]acetic acid]",64,,,
"CC(C)c1ccc(Cc2cn(CC(=O)O)c3ccc(-c4cccc(C(F)(F)F)c4)cc23)cc1 [Example 9, [3-(4-Isopropyl-benzyl)-5-(3-trifluoromethyl-phenyl)-indol-1-yl]acetic acid]",26,,,
"CC(C)CC(C)c1cn(CC(=O)O)c2ccc(-c3ccc(Cl)cc3Cl)cc12 (centres unmarked) [Example 10, [5-(2,4-Dichloro-phenyl)-3-(1,3-dimethyl-butyl)-indol-1-yl]-acetic acid]",48,,,
"CC(c1ccccc1)c1cn(CC(=O)O)c2ccc(-c3ccc(Cl)cc3Cl)cc12 (centres unmarked) [Example 11, [5-(2,4-Dichloro-phenyl)-3-(1-phenyl-ethyl)-indol-1-yl]-acetic acid]",26,,,
"CC(c1cn(CC(=O)O)c2ccc(-c3ccc(Cl)cc3Cl)cc12)C1CCCCC1 (centres unmarked) [Example 12, [3-(1-Cyclohelxy-ethyl)-5-(2,4-dichloro-phenyl)-indol-1-yl]-acetic acid]",,,,48

# Results, then the compound that gave them:
inhibition at 25 µM [1] [%],IC50 [2] [µM],melting point [°C],% Inhibition @ 25 μM [1] [%],Compound
31,15.1,188 to 190,,O=C(O)Cn1cc(Cc2cc(C(F)(F)F)cc(C(F)(F)F)c2)c2cc(-c3ccc(OC(F)(F)F)cc3)ccc21 [Example 2]
100,,150 to 155,,"O=C(O)Cn1cc(Cc2cc(C(F)(F)F)cc(C(F)(F)F)c2)c2cc(-c3ccc(Cl)cc3Cl)ccc21 [Example 3, [3-[3,5-bis(trifluoromethyl)benzyl]-5-(2,4-dichlorophenyl)-1H-indol-1-yl]acetic acid]"
35,,175 to 176,,"O=C(O)Cn1cc(Cc2cc(C(F)(F)F)cc(C(F)(F)F)c2)c2cc(-c3cccc(C(F)(F)F)c3)ccc21 [Example 4, {3-[3,5-bis(triflu romethyl)benzyl]-5-[3-(trifluoromethyl)phenyl]-1H-indol-1-yl}acetic acid]"
